2 compounds from patent publication US20240174697A1, “PH-ACTIVABLE FLUORESCENT PROBES FOR TARGETING CELL ORGANELLES” (Purdue Research Foundation, priority 2021, published 2024) can be followed below.

“Also recorded” adds a separate entry of the source.

Data set [1] can be described thus: Solubility in aqueous medium / pH solutions. Type of data set: physicochemical.
The nature of data set [2]: Absorption and fluorescence spectra at different pH solutions, pKa. The format is physicochemical. Particulars: in a mixture of DMSO: acetonitrile.
Data set [3] has as its system primary mouse microglia. Nature of the data set: Confocal imaging, localization of probes in primary microglia. Type of data set: cell-based. As to conditions: 10 μM probe 2 hours, co-staining LysoTracker / MitoLite / DAPI. The procedure:
A detailed protocol for the isolation and culture of primary microglia from adult mouse brains is previously described^2. Briefly, CD11^+ primary microglia were isolated from adult C57BL/6 mice aged 5-7 months of age (both male and female sexes) and cultured as follows. Mice were euthanized with CO2 following the PACUC guidelines, perfused brains were removed and cut into small pieces before homogenizing them in DPBS++with 0.4% DNase-I on the tissue dissociator at 37° C. After filtering the cells through a 70 μm filter, myelin was removed two times, first using gradient centrifugation with Percoll PLUS reagent followed by the use of myelin removal beads on the magnetic column separators. After myelin removal, CD11^+ cells were selected from the single cell suspension using the CD11^+ beads as per the manufacturer's instructions. The CD11^+ cells were finally resuspended in microglia growth media, further diluted in TIC (TGF-β, IL-34, and cholesterol containing) media containing 2% FBS before seeding 0.1×10^6 cells/500 μL/well of a 24-well plate. The cells were maintained at 37° C. and 10% CO2 with half-media change every other day until the day of compound treatment (around 12-14 div). For confocal imaging experiments, around 50,000 cells/2 mL cells were sub-cultured at the center of 35 mm glass-bottom imaging dishes (FluoroDish™ #FD35).
The localization of the fluorescent probes was visualized using confocal microscopy. The cells were incubated with 10 μM probe for 2 hours and then the media was aspirated. The cells were then incubated with 100 nM LysoTracker (1 mM stock from Thermo #L7528) or with 0.5x MitoLite (1000-fold dilution from 500x stock of AAT Bioquest #22678) for 1.5 hours. The media was aspirated, and the cells were fixed with 4% paraformaldehyde for 10 mins followed by nuclear staining with 1 μM/mL DAPI for 5 mins. For BV2 microglia grown on glass coverslips, the coverslips were removed from the wells and transferred to glass slides with a drop of anti-fade reagent (Thermo Fisher Scientific #P36930). […]

Data set [4] deals with BV2 microglia. Nature of the data set: Cellular uptake of the fluorescent probes. The format is in vitro ADME, mouse. As to conditions: 2 hour treatment, 10 μM, BV2. The procedure: FIG. 7 describes percent uptake efficiency of the fluorescent probes in BV2 microglia. Cellular uptake of the probe at different concentrations after two hours of incubation. The % uptake efficiency was determined as the percentage of probe taken up by cells out of the total amount of probe in the initial incubation solution. Bars depict n=3 data with SD.
Cellular uptake of the florescent probes was determined in-vitro as following: BV2 cells (20,000 cells/well) were seeded in a 96 well plate and cultured overnight at 37° C. in a 5% CO2 incubator. Next day, the media was removed, and the cells were treated with 1, 5, or 10 μM of the probes for 2 hours. After incubation, the supernatant was collected, and the absorbance was recorded at the respective absorbance maxima of the probe. This was compared with absorbance of the probe in media without cells. The percent cellular uptake was calculated as percentage of […]:
% Uptake Efficiency=1-[Asupernatant×100/Aprobe]

Data set [5] is described as follows: Absorption and fluorescence spectra at different pH solutions, pKa. Type of data set: physicochemical. On the procedure:
Spectrum recorded at room temperature in PBS buffer at varying pH with 1% (v/v) of DMSO, in all cases probe concentration=10 μM.
Next, we investigated the absorption and fluorescent properties of LysoShine 1, LysoShine 2, and MitoShine (FIG. 2). The LysoShine 1 in different pH solutions of phosphate buffer (1% DMSO in 1M PBS) has an absorption centered around 500 nm and emission maximum at 505 nm with 480 nm excitation. […] We tested the mitochondrial targeting property of MitoShine (max. absorption 505 nm, max. emission 535 nm, excitation 480 nm). […] We also tested the photophysical property of the important synthetic intermediate compound 10 (absorption maximum 505 nm, max, emission 510 nm at excitation 480 nm).

Data set [6] concerns BV2 microglia. Nature of the data set: MTT assay, metabolic activity of BV2 microglia. Type of data set: cell-based, mouse. Particulars: 24 hours. On the procedure:
(§1) The dried fluorescent probes powders were resuspended in cell grade DMSO to prepare 5 mM stock solutions. This stock was used to make a 1, 5, or 10 μM dilution of the probe in cell culture media. The diluted probe solutions were filtered through 0.22 µm filters before adding to the cells.
Murine microglial BV2 cells (10,000 cells/well) were seeded in a 96 well plate and cultured for 24 hours at 37° C. in a 5% CO2 incubator. Next day, the media was aspirated, and the cells were rinsed twice with PBS (pH 7.4) followed by treatment with 1, 5, or 10 μM of the probe solution made in DMSO (final DMSO concentration=0.05%) for 24 hours in the incubator. Next, the media was aspirated and 20 μL of 5 mg/mL 3-(4,5dimethylthiazol-2-yl)-2,5-diphenyltetrazolium bromide (MTT) solution was added to the cells and then incubated for three hours. The MTT solution was then removed and 100 μL DMSO was added to dissolve the violet formazan crystals. The plate was shaken for 5 minutes using an orbital shaker. The absorbance value at 450 nm was recorded and the percent cell metabolic activity was calculated as the ratio of sample absorbance to control absorbance.

In data set [7] the test system is primary mouse microglia. Nature of the data set: Flow cytometry analysis of probe fluorescence in live cells. The format is cell-based. As to conditions: co-staining with MitoLite dye. The source says: FIGS. 3A-3E. […] Modal corresponds to a percentage of the maximum count. […] US Ctrl is unstained control. Gating strategy and flow plots with commercial dyes in supporting information.
A detailed protocol for the isolation and culture of primary microglia from adult mouse brains is previously described^2. Briefly, CD11^+ primary microglia were isolated from adult C57BL/6 mice aged 5-7 months of age (both male and female sexes) and cultured as follows. Mice were euthanized with CO2 following the PACUC guidelines, perfused brains were removed and cut into small pieces before homogenizing them in DPBS++with 0.4% DNase-I on the tissue dissociator at 37° C. After filtering the cells through a 70 μm filter, myelin was removed two times, first using gradient centrifugation with Percoll PLUS reagent followed by the use of myelin removal beads on the magnetic column separators. After myelin removal, CD11^+ cells were selected from the single cell suspension using the CD11^+ beads as per the manufacturer's instructions. […]
Primary mouse microglia were treated with 1, 5, or 10 μM fluorescent probes for 2 hours for the cells to uptake the probe. […] Around 10-20 thousand cells were gated from the live cells in order to analyze the cellular fluorescence signal corresponding to the LysoShine/Lysotracker or Mitoshine/MitoLite probes.

Data set [8] has as its system BV2 microglia. Nature of the data set: LDH cytotoxicity assay on BV2 microglia. The format is cell-based, mouse. As to conditions: BV2. On the procedure: as §1
The cytotoxicity of the fluorescent probes was determined using the Invitrogen™ CyQUANT™ LDH Cytotoxicity Assay kit which measures the release of Lactate dehydrogenase (LDH) from the dead and dying cells. The assay was performed per the manufacturer's protocol. Briefly, BV2 cells (5000 cells/100 μL/well) were seeded in a 96 well plate and cultured for 24 hours at 37° C. in a 5% CO2 incubator. After 24 hours, the media was removed, and the cells were treated with 1, 5, or 10 μM of the probes for 2 or 24 hours of incubation. Three additional wells were treated with the given lysis buffer for 45 minutes (positive control). After the corresponding incubation period, the total LDH release was measured using a fluorescent plate reader. The cells without any probe treatment correspond to spontaneous LDH release and were taken as negative control and the cells treated with the lysis buffer correspond to maximum LDH release. The percentage cytotoxicity of the probes was determined as follows: […]

In the case of `CCOC(=O)C1=C(C)C2=C(c3ccc(N(C)C)cc3)c3c(C)c(C(=O)OCC)c(C=Cc4ccc(O)c([N+](=O)[O-])c4)n3[B-](F)(F)[N+]2=C1C` [Compound 6b, Diethyl (E)-10-(4-(Dimethylamino)phenyl)-5,5-difluoro-3-(4-hydroxy-3-nitrostyryl)-1,7,9-trimethyl-5H-414,514-dipyrrolo[1,2-c:2′,1′-f][1,3,2]diazaborinine-2,8-dicarboxylate], the “solubility in aqueous medium” value in data set [1] (aqueous medium) is listed as “sparingly soluble”. Also, in data set [1] (mixture of DMSO: acetonitrile), the “solubility in DMSO: acetonitrile” value is on record as “soluble”. In data set [2], the “pH at which significant fluorescence is shown” value is recorded as “less than 6”.
For `CCOC(=O)C1=C(C)C2=C(c3ccc(NC(=O)C[P+](c4ccccc4)(c4ccccc4)c4ccccc4)cc3)c3c(C)c(C(=O)OCC)c(C)n3[B-](F)(F)[N+]2=C1C.[Br-]` [MitoShine, (2-((4-(2,8-bis(ethoxycarbonyl)-5,5-difluoro-1,3,7,9-tetramethyl-5H-414,514-dipyrrolo[1,2-c:2′, 1′-f][1,3,2]diazaborinin-10-yl)phenyl)amino)-2-oxoethyl)triphenylphosphonium bromide], in data set [1] (final DMSO concentration 1%), the “solubility upon addition of pH solutions” value is listed as “maintains its solubility”. Moreover, the “localization of the probe within cell organelles” value in the data set with primary mouse microglia [3] is reported as “co-localized with MitoLite; also recorded: colocalization of MitoShine in both mitochondrial as well as in lysosomal organelles”. Further, in the data set on BV2 microglia [4], the uptake efficiency was 30%. This compound displayed a pKa in data set [5] (PBS buffer at varying pH, 1% (v/v) DMSO, probe 10 μM, room temperature) of 4.4. The same compound showed an emission maximum in data set [5] (excitation 480 nm, pH solutions of phosphate buffer, 1% DMSO) of 535 nm. The “pH at which high fluorescence is shown” value in data set [5] (pH buffer solutions) is reported as 4. Further, the absorption maximum in data set [5] (pH solutions of phosphate buffer, 1% DMSO) was 505 nm. The figures for the cellular metabolic activity entry in the data set on BV2 microglia [6] (1 μM) and with BV2 microglia [6] (5 μM or higher) were “high cellular metabolic activity” and 10%, respectively. The “live cells positive for probe and MitoLite” value in the data set with primary mouse microglia [7] is on record as “around 87%”. Also, the “cytotoxicity (LDH release)” value with BV2 microglia [8] (2 hour, 1 and 5 μM) was “no cytotoxicity”; with BV2 microglia [8] (24 hours, 10 μM and 5 μM), “around 20%”.
